The record followed here is patent US8993542B2, “Methods of treating viral infections” (priority 2008, dated 2015).

The test system of the experiment is HIV-1IIIB. The experiment is described as follows: Two-drug combination antiviral assay in CEM cells (CPE), MacSynergy II. Format: cell-based. Particulars: for Antagonism Volume, Result 1 / Antagonism Volume, Result 2 / Antagonism Volume, Result 3 / Mean Antagonism Volume (n = 3) / Mean Synergy Volume (n = 3) / Synergy Volume, Result 1 / Synergy Volume, Result 2 / Synergy Volume, Result 3: in combination with CMX157, CEM-SS cells, 95% confidence.

In the case of `Cc1cccc(C)c1OCC(=O)N[C@@H](Cc1ccccc1)[C@@H](O)C[C@H](Cc1ccccc1)NC(=O)[C@H](C(C)C)N1CCCNC1=O` [Lopinavir (LPV), lopinavir], the “Antagonism Volume, Result 1” value is on record as −0.31 nM^2 %, μM^2 % or nMμM %; the “Antagonism Volume, Result 2” value is 0 nM^2 %, μM^2 % or nMμM %; the “Antagonism Volume, Result 3” value is on record as −0.12 nM^2 %, μM^2 % or nMμM %; the “Mean Antagonism Volume (n = 3)” value is listed as −0.14 nM^2 %, μM^2 % or nMμM %. For the same compound, the “Mean Synergy Volume (n = 3)” value is given as 55.6 nM^2 %, μM^2 % or nMμM %; the “Synergy Volume, Result 1” value is on record as 78.8 nM^2 %, μM^2 % or nMμM %; the “Synergy Volume, Result 2” value is on record as 28.3 nM^2 %, μM^2 % or nMμM %; the “Synergy Volume, Result 3” value is 59.8 nM^2 %, μM^2 % or nMμM %. Further, the “Interpretation of Antiviral Results (MacSynergy)” value (two-drug combination (with CMX157; control d4T/RBV), CEM-SS cells) was “slightly synergistic”.

Consider `CC(C)CN(C[C@@H](O)[C@H](Cc1ccccc1)NC(=O)O[C@H]1CO[C@H]2OCC[C@H]21)S(=O)(=O)c1ccc(N)cc1` [Darunavir (DRV), darunavir], for which the “Antagonism Volume, Result 1” value was 0 nM^2 %, μM^2 % or nMμM %; the “Antagonism Volume, Result 2” value is recorded as −2.31 nM^2 %, μM^2 % or nMμM %; the “Antagonism Volume, Result 3” value is 0 nM^2 %, μM^2 % or nMμM %; the “Mean Antagonism Volume (n = 3)” value was −0.54 nM^2 %, μM^2 % or nMμM %. Also, the “Mean Synergy Volume (n = 3)” value is 43.2 nM^2 %, μM^2 % or nMμM %; the “Synergy Volume, Result 1” value was 109 nM^2 %, μM^2 % or nMμM %; the “Synergy Volume, Result 2” value is 11.5 nM^2 %, μM^2 % or nMμM %; the “Synergy Volume, Result 3” value is 9.48 nM^2 %, μM^2 % or nMμM %.
